For this assay, the target named is T1, GTP/GDP carrier (GGC) from yeast mitochondria (Saccharomyces cerevisiae, UniProt P38988).
T1 sequence (P38988 1-300): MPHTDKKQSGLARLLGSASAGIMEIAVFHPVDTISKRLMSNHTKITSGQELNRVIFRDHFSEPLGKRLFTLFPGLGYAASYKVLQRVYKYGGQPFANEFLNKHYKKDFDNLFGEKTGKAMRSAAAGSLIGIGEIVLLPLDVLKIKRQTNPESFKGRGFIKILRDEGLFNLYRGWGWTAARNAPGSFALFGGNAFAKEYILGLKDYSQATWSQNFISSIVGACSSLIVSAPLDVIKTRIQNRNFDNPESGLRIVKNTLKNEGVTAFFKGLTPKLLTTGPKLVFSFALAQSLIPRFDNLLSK
As to the kind of experiment: NMR chemical shift perturbation titration, 3D TROSY HNCO. It counts as binding.

Turning to `Nc1nc2c(ncn2[C@@H]2O[C@H](COP(=O)(O)OP(=O)(O)O)[C@@H](O)[C@H]2O)c(=O)[nH]1` [GDP], the Kd was found to be 23 mM. The same measure for `Nc1nc2c(ncn2[C@@H]2O[C@H](COP(=O)(O)OP(=O)(O)OP(=O)(O)O)[C@@H](O)[C@H]2O)c(=O)[nH]1` [GTP]: 6.6 mM.

By Kd is commonly meant the free concentration of one partner at which half of the binding sites on the other are occupied at equilibrium, for simple one-to-one binding.
